compound: N[C@@H]1CCCN(c2c(/C=C3\SC(=O)NC3=O)cccc2-c2ccccc2)C1 [AZD1208] + CS(=O)(=O)CCNCc1ccc(-c2ccc3ncnc(Nc4ccc(OCc5cccc(F)c5)c(Cl)c4)c3c2)o1 [Lapatinib] (partner 2 µM); assay: relative viability (nuclei count vs DMSO), 5 days (fraction); higher = more cells survive; conditions: first compound 0.08 µM
Outline: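 The day after seeding in 1536-well plates, lung cancer cell lines were treated by pin tool with a single drug, or with a fixed anchor-drug dose together with five library-drug doses (not always all listed) in √10 steps. After 5 days, a combined fix-and-stain solution (final 0.05% Triton X-100, 1% formaldehyde, 1 ug/ml Hoechst) was added. Nuclei counted on 4× images gave relative viability as treated counts over vehicle counts, reported as the median of duplicate plates.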

Cell Line | relative viability
NCI-H2347 | 1.09
NCI-H1299 | 0.984
NCI-H650 | 1.06
CAL-12T | 0.634
NCI-H1651 | 0.805
EPLC-272H | 0.987
NCI-H23 | 1.06
NCI-H1792 | 0.874
NCI-H1355 | 1.04
NCI-H322M | 0.574
NCI-H1437 | 0.833
NCI-H1755 | 1.05
NCI-H2085 | 0.768
HCC-15 | 0.871
NCI-H1793 | 0.563
PC-3 [JPC-3] | 0.424
EKVX | 0.194
LC-2-ad | 0.961
NCI-H1563 | 0.918
NCI-H1944 | 0.8
NCI-H1975 | 0.916
SK-LU-1 | 0.802
ABC-1 | 1.14
NCI-H358 | 0.343
NCI-H661 | 0.397
RERF-LC-KJ | 0.819

same assay, conditions: first compound 0.253 µM

Cell Line | relative viability
NCI-H2347 | 1.11
NCI-H1299 | 0.938
NCI-H650 | 0.771
CAL-12T | 0.771
NCI-H1651 | 0.784
EPLC-272H | 0.866
NCI-H23 | 1.22
NCI-H1792 | 0.999
NCI-H1355 | 0.995
NCI-H322M | 0.568
NCI-H1437 | 1.04
NCI-H1755 | 1.09
NCI-H2085 | 0.862
HCC-15 | 0.858
NCI-H1793 | 0.982
PC-3 [JPC-3] | 0.412
EKVX | 0.191
LC-2-ad | 1.01
NCI-H1563 | 1
NCI-H1944 | 0.788
NCI-H1975 | 1.1
SK-LU-1 | 0.864
ABC-1 | 0.904
NCI-H358 | 0.44
NCI-H661 | 0.425
RERF-LC-KJ | 0.896

same assay, conditions: first compound 0.8 µM

Cell Line | relative viability
NCI-H2347 | 0.896
NCI-H1299 | 0.96
NCI-H650 | 1.06
CAL-12T | 0.6
NCI-H1651 | 0.717
EPLC-272H | 0.841
NCI-H23 | 0.945
NCI-H1792 | 0.885
NCI-H1355 | 0.777
NCI-H322M | 0.507
NCI-H1437 | 0.69
NCI-H1755 | 1.01
NCI-H2085 | 0.7
HCC-15 | 0.874
NCI-H1793 | 0.629
PC-3 [JPC-3] | 0.451
EKVX | 0.194
LC-2-ad | 1.04
NCI-H1563 | 1.02
NCI-H1944 | 0.708
NCI-H1975 | 0.838
SK-LU-1 | 0.826
ABC-1 | 1.05
NCI-H358 | 0.38
NCI-H661 | 0.396
RERF-LC-KJ | 0.698

same assay, conditions: first compound 2.53 µM

Cell Line | relative viability
NCI-H2347 | 0.843
NCI-H1299 | 1
NCI-H650 | 0.648
CAL-12T | 0.695
NCI-H1651 | 0.643
EPLC-272H | 0.825
NCI-H23 | 0.98
NCI-H1792 | 0.908
NCI-H1355 | 1.09
NCI-H322M | 0.578
NCI-H1437 | 0.775
NCI-H1755 | 0.978
NCI-H2085 | 0.687
HCC-15 | 0.858
NCI-H1793 | 0.678
PC-3 [JPC-3] | 0.413
EKVX | 0.168
LC-2-ad | 0.94
NCI-H1563 | 1.01
NCI-H1944 | 0.712
NCI-H1975 | 0.893
SK-LU-1 | 0.831
ABC-1 | 1.09
NCI-H358 | 0.36
NCI-H661 | 0.383
RERF-LC-KJ | 0.679

same assay, conditions: first compound 8 µM

Cell Line | relative viability
NCI-H2347 | 0.97
NCI-H1299 | 0.945
NCI-H650 | 0.817
CAL-12T | 0.588
NCI-H1651 | 0.62
EPLC-272H | 0.717
NCI-H23 | 0.735
NCI-H1792 | 0.757
NCI-H1355 | 0.71
NCI-H322M | 0.56
NCI-H1437 | 0.691
NCI-H1755 | 0.848
NCI-H2085 | 0.726

Reference: the supplement of paper PMC10307832
